Experimental data from patent US8952024B2, “Herbicidal pyrimidone derivatives” (E I du Pont de Nemours and Company, priority 2009, dated 2015).

Legend:
Format in all cases: in vivo
[1] = tested on: barnyardgrass (Echinochloa crus-galli); assay: Test A pre-/postemergence plant response
Outline: (§1)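 Greenhouse trial, ~10 days. Soil (loam/sand) sprayed preemergence after seeding; emerged plants (1–2 leaf, 2–10 cm) sprayed postemergence in parallel. Response = visual injury vs untreated control, 0–100.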

[2] = tested on: pigweed (Amaranthus retroflexus); assay: Test A pre-/postemergence plant response
Outline: as §1

[3] = tested on: large crabgrass (Digitaria sanguinalis); assay: Test A pre-/postemergence plant response
Outline: as §1

[4] = tested on: giant foxtail (Setaria faberii); assay: Test A pre-/postemergence plant response
Outline: as §1

[5] = tested on: corn (Zea mays); assay: Test A pre-/postemergence plant response
Outline: as §1

[6] = tested on: velvetleaf (Abutilon theophrasti); assay: Test A pre-/postemergence plant response
Outline: as §1

[7] = tested on: wheat (Triticum aestivum); assay: Test A pre-/postemergence plant response
Outline: as §1

[8] = tested on: morningglory (Ipomoea spp.); assay: Test A pre-/postemergence plant response
Outline: as §1

[9] = tested on: cocklebur (Xanthium strumarium); assay: Test B pre-/postemergence plant response
Outline: (§2)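 Visual injury, 0–100 scale (100 = complete control), rated against controls after 13 to 15 days in greenhouse. Pre-emergence: seeds in loam/sand soil, treated at planting. Post-emergence: 1- to 4-leaf plants (2 to 18 cm) in peat/vermiculite medium. Compounds formulated in non-phytotoxic solvent with surfactant.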

[10] = tested on: soybean (Glycine max); assay: Test B pre-/postemergence plant response
Outline: as §2

[11] = tested on: wheat (Triticum aestivum); assay: Test B pre-/postemergence plant response
Outline: as §2

[12] = tested on: morningglory (Ipomoea coccinea); assay: Test B pre-/postemergence plant response
Outline: as §2

[13] = Postemergence, 125 g ai/ha, visual injury, 0 to 100 scale (0 no effect, 100 complete control), approx. ten days
[14] = Postemergence, 500 g ai/ha, 0 to 100 scale, 0 = no effect, 100 = complete control, approx. ten days
[15] = Preemergence, 125 g ai/ha, 0 to 100 scale, 0 = no effect, 100 = complete control
[16] = Preemergence, 500 g ai/ha, visual injury, 0 to 100 scale (0 no effect, 100 complete control), approx. ten days
[17] = 31 g ai/ha, postemergence, scale 0 to 100, 0 is no effect, 100 is complete control
[18] = 250 g ai/ha, Preemergence, 0 to 100 scale
[19] = Postemergence, 62 g ai/ha, scale 0 (no effect) to 100 (complete control), 13 to 15 days
[20] = Postemergence, 125 g ai/ha, visual rating after 13 to 15 days, scale 0 (no effect) to 100 (complete control)
[21] = Postemergence, 250 g ai/ha, scale 0 to 100 (0 no effect, 100 complete control)
[22] = Preemergence, 31 g ai/ha, scale 0 to 100 (0 no effect, 100 complete control)
[23] = Preemergence, 62 g ai/ha, scale 0 to 100, 0 no effect, 100 complete control
[24] = Preemergence, 125 g ai/ha, scale 0 to 100, 0 no effect, 100 complete control
[25] = 62 g ai/ha, postemergence, 0 is no effect, 100 is complete control, 13 to 15 days

CCCCc1ncc(C(=O)C2=C(O)CCCC2=O)c(=O)n1-c1ccccc1C [Compound 62]
Barnyardgrass plant response rating [1, 13]: 80 | Plant response rating, Barnyardgrass [1, 14]: 90 | Plant response rating, Barnyardgrass [1, 15]: 10 | Plant response rating, Barnyardgrass [1, 16]: 90 | Pigweed plant response rating [2, 13]: 90 | Plant response rating, Pigweed [2, 14]: 100 | Plant response rating, Pigweed [2, 15]: 80 | Plant response rating, Pigweed [2, 16]: 100 | Crabgrass, Large plant response rating [3, 13]: 70 | Plant response rating, Crabgrass, Large [3, 14]: 90 | Plant response rating, Crabgrass, Large [3, 15]: 60 | Plant response rating, Crabgrass, Large [3, 16]: 90 | Foxtail, Giant plant response rating [4, 13]: 70 | Plant response rating, Foxtail, Giant [4, 14]: 90 | Plant response rating, Foxtail, Giant [4, 15]: 60 | Plant response rating, Foxtail, Giant [4, 16]: 70 | Corn plant response rating [5, 13]: 30 | Plant response rating, Corn [5, 14]: 70 | Plant response rating, Corn [5, 15]: 0 | Plant response rating, Corn [5, 16]: 20 | Velvetleaf plant response rating [6, 13]: 100 | Plant response rating, Velvetleaf [6, 14]: 100 | Plant response rating, Velvetleaf [6, 15]: 70 | Plant response rating, Velvetleaf [6, 16]: 90 | Wheat plant response rating [7, 13]: 0 | Plant response rating, Wheat [7, 14]: 20 | Plant response rating, Wheat [7, 15]: 0 | Plant response rating, Wheat [7, 16]: 10 | Morningglory plant response rating [8, 13]: 100 | Plant response rating, Morningglory [8, 14]: 100 | Plant response rating, Morningglory [8, 15]: 90 | Plant response rating, Morningglory [8, 16]: 100 | Plant response rating, Cocklebur [9, 17]: 25 | Plant response rating, Cocklebur [9, 18]: 10 | Plant response rating, Cocklebur [9, 19]: 55 | Plant response rating, Cocklebur [9, 20]: 55 | Plant response rating, Cocklebur [9, 21]: 75 | Plant response rating, Cocklebur [9, 22]: 0 | Plant response rating, Cocklebur [9, 23]: 0 | Plant response rating, Cocklebur [9, 24]: 0 | Plant response rating, Soybean [10, 17]: 75 | Plant response rating, Soybean [10, 19]: 80 | Plant response rating, Soybean [10, 20]: 90 | Plant response rating, Soybean [10, 21]: 95 | Plant response rating, Soybean [10, 22]: 0 | Plant response rating, Soybean [10, 23]: 80 | Plant response rating, Soybean [10, 24]: 80 | Plant response rating, Wheat [11, 17]: 0 | Plant response rating, Wheat [11, 19]: 0 | Plant response rating, Wheat [11, 20]: 5 | Plant response rating, Wheat [11, 21]: 30 | Plant response rating, Wheat [11, 22]: 0 | Plant response rating, Wheat [11, 23]: 0 | Plant response rating, Wheat [11, 24]: 0 | Plant response rating, Morningglory [12, 19]: 15 | Plant response rating, Morningglory [12, 20]: 75 | Plant response rating, Morningglory [12, 21]: 75 | Plant response rating, Morningglory [12, 22]: 0 | Plant response rating, Morningglory [12, 23]: 0 | Plant response rating, Morningglory [12, 24]: 0

O=C1CCCC(O)=C1C(=O)c1cnc(-c2cccs2)n(-c2ccccc2)c1=O [Compound 66]
Barnyardgrass plant response rating [1, 13]: 80 | Plant response rating, Barnyardgrass [1, 14]: 90 | Plant response rating, Barnyardgrass [1, 15]: 20 | Plant response rating, Barnyardgrass [1, 16]: 70 | Pigweed plant response rating [2, 13]: 100 | Plant response rating, Pigweed [2, 14]: 100 | Plant response rating, Pigweed [2, 15]: 90 | Plant response rating, Pigweed [2, 16]: 100 | Crabgrass, Large plant response rating [3, 13]: 70 | Plant response rating, Crabgrass, Large [3, 14]: 90 | Plant response rating, Crabgrass, Large [3, 15]: 90 | Plant response rating, Crabgrass, Large [3, 16]: 100 | Foxtail, Giant plant response rating [4, 13]: 70 | Plant response rating, Foxtail, Giant [4, 14]: 80 | Plant response rating, Foxtail, Giant [4, 16]: 80 | Plant response rating, Corn [5, 14]: 60 | Plant response rating, Corn [5, 15]: 0 | Plant response rating, Corn [5, 16]: 0 | Velvetleaf plant response rating [6, 13]: 100 | Plant response rating, Velvetleaf [6, 14]: 100 | Plant response rating, Velvetleaf [6, 15]: 70 | Plant response rating, Velvetleaf [6, 16]: 100 | Wheat plant response rating [7, 13]: 0 | Plant response rating, Wheat [7, 14]: 0 | Plant response rating, Wheat [7, 15]: 0 | Plant response rating, Wheat [7, 16]: 0 | Morningglory plant response rating [8, 13]: 90 | Plant response rating, Morningglory [8, 14]: 90 | Plant response rating, Morningglory [8, 15]: 0 | Plant response rating, Morningglory [8, 16]: 30 | Plant response rating, Cocklebur [9, 17]: 10 | Plant response rating, Cocklebur [9, 18]: 0 | Plant response rating, Cocklebur [9, 19]: 10 | Plant response rating, Cocklebur [9, 20]: 25 | Plant response rating, Cocklebur [9, 21]: 45 | Plant response rating, Cocklebur [9, 22]: 0 | Plant response rating, Cocklebur [9, 23]: 0 | Plant response rating, Cocklebur [9, 24]: 0 | Plant response rating, Soybean [10, 17]: 95 | Plant response rating, Soybean [10, 19]: 95 | Plant response rating, Soybean [10, 20]: 98 | Plant response rating, Soybean [10, 21]: 98 | Plant response rating, Wheat [11, 17]: 0 | Plant response rating, Wheat [11, 20]: 0 | Plant response rating, Wheat [11, 21]: 0 | Plant response rating, Wheat [11, 22]: 0 | Plant response rating, Wheat [11, 23]: 0 | Plant response rating, Wheat [11, 24]: 0 | Plant response rating, Morningglory [12, 17]: 98 | Plant response rating, Morningglory [12, 19]: 100 | Plant response rating, Morningglory [12, 20]: 100 | Plant response rating, Morningglory [12, 21]: 100 | Plant response rating, Morningglory [12, 22]: 0 | Plant response rating, Morningglory [12, 23]: 20 | Plant response rating, Morningglory [12, 24]: 25

CC(C)Cc1ncc(C(=O)C2=C(O)CCCC2=O)c(=O)n1-c1ccccc1 [Compound 68]
Barnyardgrass plant response rating [1, 13]: 80 | Plant response rating, Barnyardgrass [1, 14]: 90 | Plant response rating, Barnyardgrass [1, 15]: 0 | Plant response rating, Barnyardgrass [1, 16]: 50 | Pigweed plant response rating [2, 13]: 100 | Plant response rating, Pigweed [2, 14]: 100 | Plant response rating, Pigweed [2, 15]: 90 | Plant response rating, Pigweed [2, 16]: 100 | Crabgrass, Large plant response rating [3, 13]: 80 | Plant response rating, Crabgrass, Large [3, 14]: 100 | Plant response rating, Crabgrass, Large [3, 15]: 70 | Plant response rating, Crabgrass, Large [3, 16]: 100 | Foxtail, Giant plant response rating [4, 13]: 50 | Plant response rating, Foxtail, Giant [4, 14]: 70 | Plant response rating, Foxtail, Giant [4, 16]: 60 | Corn plant response rating [5, 13]: 0 | Plant response rating, Corn [5, 14]: 10 | Plant response rating, Corn [5, 15]: 0 | Plant response rating, Corn [5, 16]: 0 | Velvetleaf plant response rating [6, 13]: 100 | Plant response rating, Velvetleaf [6, 14]: 100 | Plant response rating, Velvetleaf [6, 15]: 70 | Plant response rating, Velvetleaf [6, 16]: 100 | Wheat plant response rating [7, 13]: 0 | Plant response rating, Wheat [7, 14]: 0 | Plant response rating, Wheat [7, 15]: 0 | Plant response rating, Wheat [7, 16]: 0 | Morningglory plant response rating [8, 13]: 90 | Plant response rating, Morningglory [8, 14]: 90 | Plant response rating, Morningglory [8, 15]: 20 | Plant response rating, Morningglory [8, 16]: 50 | Plant response rating, Cocklebur [9, 17]: 25 | Cocklebur plant response rating (0 to 100 scale) [9, 25]: 75 | Plant response rating, Cocklebur [9, 18]: 80 | Plant response rating, Cocklebur [9, 20]: 90 | Plant response rating, Cocklebur [9, 21]: 90 | Plant response rating, Cocklebur [9, 22]: 0 | Plant response rating, Cocklebur [9, 23]: 10 | Plant response rating, Soybean [10, 17]: 80 | Soybean plant response rating (0 to 100 scale) [10, 25]: 95 | Plant response rating, Soybean [10, 20]: 98 | Plant response rating, Soybean [10, 21]: 98 | Plant response rating, Wheat [11, 17]: 5 | Wheat plant response rating (0 to 100 scale) [11, 25]: 5 | Plant response rating, Wheat [11, 20]: 5 | Plant response rating, Wheat [11, 21]: 10 | Plant response rating, Wheat [11, 22]: 0 | Plant response rating, Wheat [11, 23]: 0 | Plant response rating, Wheat [11, 24]: 0 | Plant response rating, Morningglory [12, 17]: 80 | Morningglory plant response rating (0 to 100 scale) [12, 25]: 85 | Plant response rating, Morningglory [12, 20]: 98 | Plant response rating, Morningglory [12, 21]: 100 | Plant response rating, Morningglory [12, 22]: 0 | Plant response rating, Morningglory [12, 23]: 55 | Plant response rating, Morningglory [12, 24]: 65
